Measured values reported in US12410124B2 (priority 2019, dated 2025).

Assays:
Assay type in all cases: in vivo
midbrain p-α-s = assay: Midbrain p-α-s protein expression in MPTP Parkinson's disease model mouse (western-blotting); details: midbrain total protein, GAPDH internal reference, gavage 21 consecutive days after MPTP modeling
Method: (§1) Neurotoxins can be used to establish PD animal models. Currently, 1-methyl-4-phenyl-1,2,3,6-tetrahydropyridine (MPTP) is the sole synthetic toxin which is recognized to induce PD symptoms in human and non-human primates and in mice. Using MPTP subacute modeling method, C57BL/6J male mice were intraperitoneally injected with MPTP 30 mg/kg, once a day for 5 consecutive days. The experiment animals were divided into blank control group, MPTP model group, and compound treatment group. For the […] compound treatment group, the compound was administrated by gavage for 21 consecutive days after the completion of modeling; for the MPTP model group, the normal saline was administrated by gavage for 21 consecutive days after the completion of modeling; and for the blank control group, the normal saline was first intraperitoneally injected for 5 days, and then administrated by gavage for 21 days.
Alpha-synuclein is an “unfolded protein” in its natural state. It exists in a monomeric form, and participates in the physiological functions such as the release of neurotransmitters, the establishment of synaptic junctions, and the regulation of synaptic plasticity. Under pathological conditions, more than 90% of alpha-synuclein is phosphorylated at serine of position 129 and converted into phosphorylated alpha-synuclein (p-α-s), thereby forming Lewy bodies. The formation of Lewy bodies is one of the main pathological manifestations and pathological mechanisms for Parkinson's disease, and plays an important role in the formation and development of PD. The detection of the p-α-s expression in the midbrain and substantia nigra of PD model mice can evaluate the neuroprotective activity of the compound.
Half of experiment mice in each group were taken to extract the total midbrain protein, and the change in the midbrain P-α-s protein expression was determined by western-blotting using GAPDH as the internal reference. The experiment included blank control group, MPTP model group, positive control group (caffeic acid phenethyl ester, CAPE), prototype control group (styryl sulfone compounds 3B, 3C, 3D, and 3G, whose structures are shown as above), and target compound group.

substantia nigra GFAP = assay: Number of substantia nigra astrocytes with GFAP positive expression in MPTP Parkinson's disease model mouse (immunohistochemistry); details: substantia nigra, MPTP Parkinson's disease model mouse, immunohistochemistry
Method: as §1
Neuron-glial cell network homeostasis disorder is an important factor for the selective and progressive death of substantia nigra dopaminergic neurons in PD. In the neurotoxic effect of MPTP, the excessive activations of microglial cells and astrocytes produce a variety of inflammatory cytokines and reactive oxygen species (ROS). These inflammatory factors and ROS amplify their respective toxicities and mediate malignant feedback loop, causing a cascade inflammation response and aggravating the pathological process of PD. CD11b and GFAP are the marker proteins for activations of microglial cells and astrocytes, respectively. Therefore, the effect of the target compounds on the activations of the microglial cells and astrocytes in the substantia nigra, hippocampus, and midbrain areas of MPTP-induced PD mice can be investigated, to explore the mechanism of the anti-PD effect of the target compounds by inhibiting the neuroinflammation.
Half of experiment mice in each group were taken to separate the midbrain after perfusion and fixation. The tissue was trimmed, and the substantia nigra area was taken to prepare paraffin sections. The GFAP immunohistochemical staining was performed for the statistics of the change in the number of astrocytes with GFAP positive expression. The experiment included blank control group, MPTP model group, positive control group (caffeic acid phenethyl ester, CAPE), prototype control group (styryl sulfone compounds 3B, 3C, 3D, and 3G, whose structures are shown as above), and target compound group.

GCLC = assay: Midbrain GCLC expression in MPTP Parkinson's disease model mouse (western blot); details: midbrain, MPTP Parkinson's disease model mouse, western blot
Method: as §1
(§2) Oxidative stress is an important pathogenic mechanism of PD. Dopaminergic neurons are more sensitive to oxidative stress and are more susceptible to oxidative stress damage. Glutathione (GSH) is an important antioxidant substance in the cell, and glutamate cysteine ligase (GCL) is the rate-limiting enzyme for GSH synthesis, which is composed of catalytic subunit (GCLC) and regulatory subunit (GCLM). The increase of GCLC expression can promote the synthesis of GSH and enhance the ability of tissue cells against oxidative stress. GCL, a phase II enzyme, plays an important protective role by catalyzing the conversion of free radicals into non-toxic products and increasing their water solubility to facilitate the elimination of free radicals, and maintain the redox balance in the body. It plays an important role in the process of protecting cells against oxidative stress damage. The activation of p38 protein phosphorylation has a negative regulatory effect on phase II enzymes. […] Using GCLC as an indicator, the inhibitory effect of the target compounds on MPTP-induced oxidative stress damage in PD mice can be investigated.
(§3) GCLC is expressed in astrocytes, microglial cells, and neurons. The total proteins of the midbrain tissue of mice in each experiment group were extracted, to determine the expression of phase II enzyme GCLC in the midbrain of mice by western blot using GAPDH as the internal reference. The experiment included blank control group, MPTP model group, positive control group (caffeic acid phenethyl ester, CAPE), prototype control group (styryl sulfone compounds 3B, 3C, 3D), and 3G, whose structures are shown as above), and target compound group.

HO-1 = assay: Midbrain HO-1 expression in MPTP Parkinson's disease model mouse (western blot); details: midbrain, MPTP Parkinson's disease model mouse, western blot
Method: as §1
as §2, with “Heme oxygenase (HO-1),” for “Glutathione (GSH) is an important antioxidant substance in the cell, and glutamate cysteine ligase (GCL) is the rate-limiting enzyme for GSH synthesis, which is composed of catalytic subunit (GCLC) and regulatory subunit (GCLM). The increase of GCLC expression can promote the synthesis of GSH and enhance the ability of tissue cells against oxidative stress. GCL,”, “enzyme, is also a well-known antioxidase. It” for “enzyme,”, “HO-1” for “GCLC”
as §3, with “HO-1” for “GCLC”, “3D,” for “3D),”

## CCN(C)C(=O)Oc1ccc(/C=C/S(=O)(=O)CC(c2ccc(-c3ccc(OC)c(OC)c3)cc2)[N+](=O)[O-])cc1OC(=O)N(C)CC (stereo not drawn) [Compound M1-1, (E)-4-{2-[2-(3′,4′-dimethoxy-[1,1′-biphenyl]-4-yl)-2-nitroethylsulfonyl]ethenyl}-1,2-phenylenebis(N-ethyl-N-methylcarbamate)]
Midbrain p-α-s
  Expression (p-α-s/GAPDH): 0.27 ± 0.08
Substantia nigra GFAP
  Positive cell number (astrocytes with GFAP positive expression): 59 ± 3
GCLC
  Expression (GCLC/GAPDH): 1.30 ± 0.09
HO-1
  Expression (HO-1/GAPDH): 1.29 ± 0.07

## COc1ccc(CC(=O)Oc2ccc(/C(C)=C/S(=O)(=O)/C=C/c3ccc(OC(=O)N(C)C)c(O[Si](C)(C)CCl)c3)cc2)cc1 [Compound P1-7, 4-{(E)-1-[(E)-3-(chloromethyldimethylsiloxy)-4-(N,N-dimethylcarbamoyloxy)styrylsulfonyl]prop-1-en-2-yl}phenyl-2-(4-methoxyphenyl) acetate]
Midbrain p-α-s
  Expression (p-α-s/GAPDH): 0.27 ± 0.08
Substantia nigra GFAP
  Positive cell number (astrocytes with GFAP positive expression): 73 ± 5
GCLC
  Expression (GCLC/GAPDH): 0.87 ± 0.08
HO-1
  Expression (HO-1/GAPDH): 0.71 ± 0.09

## COCCN(C)C(=O)Oc1cc(/C=C/S(=O)(=O)CCc2cccc(-c3ccc(C)o3)c2)ccc1OC(C)=O [Compound J1-4, (E)-2-[N-(2-methoxyethyl)-N-methylcarbamoyloxy]-4-{2-[3-(5-methylfur-2-yl)phenylethylsulfonyl]ethenyl}phenyl acetate]
Midbrain p-α-s
  Expression (p-α-s/GAPDH): 0.47 ± 0.11
Substantia nigra GFAP
  Positive cell number (astrocytes with GFAP positive expression): 77 ± 4
GCLC
  Expression (GCLC/GAPDH): 1.24 ± 0.10
HO-1
  Expression (HO-1/GAPDH): 1.25 ± 0.06

## CC(C)(C)c1ccc(CS(=O)(=O)/C=C/c2ccc(O)c(O)c2)cc1 [Compound 3G, (E)-4-{2-[(4-t-butylphenyl)mesyl]ethenyl}benzene-1,2-diol, reference compound]
Midbrain p-α-s
  Expression (p-α-s/GAPDH): 0.61 ± 0.08
Substantia nigra GFAP
  Positive cell number (astrocytes with GFAP positive expression): 130 ± 6
GCLC
  Expression (GCLC/GAPDH): 0.57 ± 0.09
HO-1
  Expression (HO-1/GAPDH): 0.51 ± 0.07

## CN(C)c1ccc(CC(=O)Oc2cc(/C=C/S(=O)(=O)C(Br)c3ccc(Cc4ccc(N(C)C)cc4)cc3)ccc2OC(=O)N2CCCC2C(F)(F)F)cc1 (stereo not drawn) [Compound M1-5]
Midbrain p-α-s
  Expression (p-α-s/GAPDH): 0.24 ± 0.05
Substantia nigra GFAP
  Positive cell number (astrocytes with GFAP positive expression): 81 ± 4
GCLC
  Expression (GCLC/GAPDH): 1.35 ± 0.08
HO-1
  Expression (HO-1/GAPDH): 0.96 ± 0.08

## C=CCOc1ccc(C/C=C/S(=O)(=O)/C=C/c2ccc(OC(C)=O)c(OC(=O)N(CC=C)CC=C)c2)cc1 [Compound K1-4, 4-{(E)-2-[(E)-3-(4-allyloxyphenyl)prop-1-en-1-yl]sulfonylethenyl}-2-(N,N-diallylcarbamoyloxy)phenyl acetate]
Midbrain p-α-s
  Expression (p-α-s/GAPDH): 0.45 ± 0.12
Substantia nigra GFAP
  Positive cell number (astrocytes with GFAP positive expression): 112 ± 4
GCLC
  Expression (GCLC/GAPDH): 1.10 ± 0.07
HO-1
  Expression (HO-1/GAPDH): 1.02 ± 0.09

## COc1cc(/C=C/S(=O)(=O)Cc2cc(OC)c(OC)c(OC)c2)ccc1OC(=O)N(c1ccccc1)c1ccccc1 [Compound K3-3, (E)-2-methoxy-4-{2-[(3,4,5-trimethoxyphenyl)mesyl]ethenyl}-phenyl-N,N-diphenylcarbamate]
Midbrain p-α-s
  Expression (p-α-s/GAPDH): 0.62 ± 0.11
Substantia nigra GFAP
  Positive cell number (astrocytes with GFAP positive expression): 96 ± 3
GCLC
  Expression (GCLC/GAPDH): 0.86 ± 0.04
HO-1
  Expression (HO-1/GAPDH): 0.69 ± 0.07

## CC[Si](CC)(Oc1ccc(C(Cl)S(=O)(=O)/C=C/c2ccc(OC(=O)N3CC(C)OC(C)C3)c(OC(=O)c3cccc(Cl)c3OC)c2)cc1)c1ccccc1 (stereo not drawn) [Compound R1-5, (E)-4-{2-[4-(diethylphenylsiloxy)phenylchloromesyl]ethenyl}-2-(3-chloro-2-methoxybenzoyloxy)phenyl-2,6-dimethylmorpholine-4-carboxylate]
Midbrain p-α-s
  Expression (p-α-s/GAPDH): 0.46 ± 0.11
Substantia nigra GFAP
  Positive cell number (astrocytes with GFAP positive expression): 90 ± 6
GCLC
  Expression (GCLC/GAPDH): 1.02 ± 0.09
HO-1
  Expression (HO-1/GAPDH): 0.87 ± 0.06

## O=C(NC(=O)C(F)(F)F)Oc1ccc(/C=C/S(=O)(=O)C(F)(F)c2ccc(Oc3ccccn3)cc2)cc1OC(=O)C(F)(F)C(F)(F)F [Compound L1-4, (E)-5-{2-[(4-[pyridin-2-yl-oxy]phenyl)difluoromethylsulfonyl]ethenyl}-2-[N-(2,2,2-trifluoroacetyl)carbamoyloxy]phenyl-2,2,3,3,3-pentafluoropropionate]
Midbrain p-α-s
  Expression (p-α-s/GAPDH): 0.38 ± 0.08
Substantia nigra GFAP
  Positive cell number (astrocytes with GFAP positive expression): 98 ± 4
GCLC
  Expression (GCLC/GAPDH): 0.96 ± 0.10
HO-1
  Expression (HO-1/GAPDH): 1.13 ± 0.12

## (E)-2-[(methylamino)methoxy]-4-{2-[1-(4′-nitro-[1,1′-biphenyl]-4-yl)ethylsulfonyl]ethenyl}phenylcarbamate [Compound M1-3]
Midbrain p-α-s
  Expression (p-α-s/GAPDH): 0.42 ± 0.05
Substantia nigra GFAP
  Positive cell number (astrocytes with GFAP positive expression): 110 ± 5
GCLC
  Expression (GCLC/GAPDH): 0.82 ± 0.07
HO-1
  Expression (HO-1/GAPDH): 0.80 ± 0.09

## O=S(=O)(/C=C/c1ccc(O)c(O)c1)Cc1ccc(C(F)(F)F)cc1 [Compound 3B, (E)-4-{2-[(4-trifluoromethylphenyl)mesyl]ethenyl}benzene-1,2-diol, reference compound]
Midbrain p-α-s
  Expression (p-α-s/GAPDH): 0.93 ± 0.04
Substantia nigra GFAP
  Positive cell number (astrocytes with GFAP positive expression): 121 ± 10
GCLC
  Expression (GCLC/GAPDH): 0.33 ± 0.04
HO-1
  Expression (HO-1/GAPDH): 0.56 ± 0.03

## COc1ccc(CC(=O)Oc2ccc(C(N)CS(=O)(=O)/C=C/c3ccc(OC(C)(C)C)c(OC(=O)N(C)c4ccccc4)c3)cc2)cc1 (stereo not drawn) [Compound P1-3, (E)-4-{1-amino-2-[4-t-butoxy-3-(N-methyl-N-phenylcarbamoyloxy)styrylsulfonyl]ethyl}phenyl-2-(4-methoxyphenyl)acetate]
Midbrain p-α-s
  Expression (p-α-s/GAPDH): 0.31 ± 0.05
Substantia nigra GFAP
  Positive cell number (astrocytes with GFAP positive expression): 69 ± 5
GCLC
  Expression (GCLC/GAPDH): 0.91 ± 0.11
HO-1
  Expression (HO-1/GAPDH): 0.77 ± 0.10
